Here are results for eleven compounds from patent US8476255B2, “Histone deacetylase inhibitors” (Orchid Chemicals & Pharmaceuticals Limited, priority 2007, dated 2013).

pIC50: −log10 of the molar value.

One may read the GI50 as the concentration that inhibits growth by half. Usually LC50 stands for the concentration that kills 50% of the test population. Usually pIC50 stands for the negative decadic logarithm of the IC50, by convention in mol/L.

One experiment has as its system HCT 116 (colon) cells. Briefly: Anti-cancer screen (MTT), HCT 116. The format is cell-based. The note with it: Homo sapiens, HCT-116, HCT116, 48 hours, MTT; for GI50: read-out: Cell growth inhibition HCT116 (Colon) GI50; for CC50: read-out: Cell growth inhibition HCT116 (Colon) LC50; for IC (TGI): read-out: Cell growth inhibition HCT116 (Colon) TGI. The procedure: (§1) Experimental drugs were screened for anti-cancer activity in three cell lines using five concentrations for each compound. The cell lines —HCT 116 (colon), NCIH460 (lung) and U251 (glioma) were maintained in DMEM containing 10% fetal bovine serum. 96-well microtiter plates are inoculated with cells in 100 μL of cell suspension (5×10^4 cells/mL) for 24 hours at 37° C., 5% CO2, 95% air and 100% relative humidity. A separate plate with these cell lines is also inoculated to determine cell viability before the addition of the compounds (T0).
(§2) Following 24-hours incubation, test compounds were added to the 96 well plates. Each plate contains one of the above cell lines and the following samples in triplicate: five different dilutions (0.01, 0.1, 1, 10 and 100 μM) of four test compounds, appropriate dilutions of a cytotoxic standard and growth medium (untreated) wells. Test compounds were dissolved in DMSO to prepare 20 mM stock solutions on the day of drug addition and serial dilutions were carried out in complete growth medium at 2× strength such that 100 μL added to wells gave final concentrations (0.01, 0.1, 1, 10 and 100 μM) in the well. SAHA was used as standard drug in these experiments.
(§3) For T0 measurement, 24 hours after seeding the cells, 20 μL of 3-(4,5-dimethyl-2-thiazolyl)-2,5-diphenyl-2H-tetrazolium (MTT) solution per well was added to the ‘T0’ plate and incubated for 3 hours at 37° C. in a CO2 incubator. The plate containing cells and test compounds was treated similarly after 48 hours of incubation. After 3 hours of MTT addition, well contents were aspirated carefully followed by addition of 150 μL DMSO per well. Plates were agitated to ensure dissolution of the formazan crystals in DMSO and absorbance was read at 570 nm (A570).
(§4) (Mosmann T. Rapid colorimetric assay for cellular growth and survival: application to proliferation and cytotoxicity assays. J Immunol Methods 1983; 65(1-2): 55-63; Anne Monks et al. Feasibility of high-flux anticancer drug screen using a diverse panel of cultured human tumor cell lines”. JNCI, Vol. 83, No. 11, 1991).

Another experiment has as its system U251 (glioma) cells. Briefly: Anti-cancer screen (MTT), U251. It is filed as cell-based. The note with it: Homo sapiens, U-251, U251, 48 hours, MTT; for GI50: read-out: Cell growth inhibition U251 (Glioma) GI50; for LC50 (concentration giving 50% net cell kill relative to the time-zero cell count): read-out: Cell growth inhibition U251 (Glioma) LC50; for IC (TGI): read-out: Cell growth inhibition U251 (Glioma) TGI. Here is the method: as §1, §2, §3, §4

A further experiment has as its system NCIH460 (lung) cells. Nature of the experiment: Anti-cancer screen (MTT), NCIH460. The format is cell-based. The note with it: Homo sapiens, NCI-H460, NCIH460, 48 hours, MTT; for GI50: read-out: Cell growth inhibition NCIH460 (Lung) GI50; for LC50: read-out: Cell growth inhibition NCIH460 (Lung) LC50; for IC (TGI): read-out: Cell growth inhibition NCIH460 (Lung) TGI. The procedure: as §1, §2, §3, §4

The subject of experiment [1] is NCIH460, HCT116 and U251 cells. Nature of the experiment: Anti-cancer screen, mean GI50 over cell lines. The format is cell-based. The note with it: mean over cell lines; read-out: Cell growth inhibition Mean GI50. Here is the method: as §1, §2, §3, §4
Experiment [2] has as its system HDAC (Mouse Liver Extract). Briefly: HDAC inhibition assay using Boc-Lys(Ac)-AMC substrate. It is filed as biochemical. The note with it: mouse liver enzyme. Here is the method:
Inhibition of HDAC has been implicated to modulate transcription and to induce apoptosis or differentiation in cancer cells. The fluorometric assay provides a fast and fluorescence based method that eliminates radioactivity, extractions or chromatography, as used in traditional assays. The assay is based on two steps. First, the HDAC fluorometric substrate, which comprises an acetylated lysine side chain, is incubated with a sample containing HDAC activity (Mouse Liver Extract). Deacetylation of the substrate sensitizes the substrate, in the second step; treatment with the Trypsin stop solution produces a fluorophore that can be easily analyzed using fluorescence plate reader. Assay was done in 96-well black microplate and total volume of the assay was […]. […] The plate was pre-incubated at 37° C. for 5 minutes. […] The plate was incubated at 37° C. for 30 min. The reaction was stopped by adding 100 μL, of Trypsin stop solution and incubating at 37° C. for 15-30 min. Measuring the fluorescence at excitation wavelength of 360 nm and emission wavelength of 460 nm monitored the release of AMC. Buffer alone and substrate alone served as blank. […] (Dennis Wegener et al, Anal. Biochem, 321, 2003, 202-208).

`CSc1ccc(/C=C(/C(=O)NCc2ccc(C(=O)Nc3ccccc3N)cc2)c2ccccc2Cl)cc1` [Compound 23, N-(2-Aminophenyl)-4-((3-(4-methylthiophenyl)-2-(2-chlorophenyl)acrylamido)methyl)benzamide]: in the experiment with HCT 116 (colon) cells, the GI50 was 4 µM, the CC50 came to 98 µM and the IC (TGI) was 8 µM. Besides, in the experiment on U251 (glioma) cells, the GI50 was greater than 100 µM, the LC50 (concentration giving 50% net cell kill relative to the time-zero cell count) is greater than 100 µM and the IC (TGI) is greater than 100 µM. For the same compound, in the experiment on NCIH460 (lung) cells, the GI50 was 34 µM, the median lethal concentration (LC50) is greater than 100 µM and the IC (TGI) is greater than 100 µM. Moreover, the GI50 in experiment [1] came out at 19 µM.
On to `Nc1ccccc1NC(=O)c1ccc(CNC(=O)/C(=C/c2ccnc3ccccc23)c2ccc(F)cc2)cc1` [Compound 22, N-(2-Aminophenyl)-4-((3-(quinolin-4-yl)-2-(4-fluorophenyl)acrylamido)methyl)benzamide], for which, in experiment [2], the “HDAC inhibition % (1 μM)” value is reported as 32.9%, the “HDAC inhibition % (10 μM)” value was determined as 56.1% and the pIC50 was 5.49. Besides, in the experiment with HCT 116 (colon) cells, the GI50 was determined as 7.9 µM, the CC50 was greater than 100 µM and the IC (TGI) amounted to 70 µM. Also, in the experiment with NCIH460 (lung) cells, the GI50 stood at 7.6 µM, the median lethal concentration (LC50) was greater than 100 µM and the IC (TGI) amounted to 80 µM. For the same compound, in experiment [1], the GI50 came to 7.8 µM.
`CSc1ccc(/C=C(/C(=O)NCc2ccc(C(=O)NO)cc2)c2ccc(C)cc2)cc1` [Compound 58, 4-((2-(4-Methylphenyl)-3-(4-methylthiophenyl)acrylamido)methyl)-N-hydroxybenzamide]: in the experiment on HCT 116 (colon) cells, the GI50 was determined as 2.8 µM, the CC50 was 65 µM and the IC (TGI) stood at 18 µM. In addition, in the experiment with U251 (glioma) cells, the GI50 came out at 21 µM, the LC50 (concentration giving 50% net cell kill relative to the time-zero cell count) came to 80 µM and the IC (TGI) is 35 µM. Further, in the experiment on NCIH460 (lung) cells, the concentration for 50% growth inhibition (GI50) came to 2.1 µM, the LC50 is 81 µM and the IC (TGI) worked out at 6 µM. Besides, the GI50 in experiment [1] came out at 8.6 µM.
`COc1ccc(/C(=C\c2ccc(SC)cc2)C(=O)NCc2ccc(C(=O)NO)cc2)cc1` [Compound 57, 4-((2-(4-Methoxyphenyl)-3-(4-methylthiophenyl)acrylamido)methyl)-N-hydroxybenzamide]: in the experiment on HCT 116 (colon) cells, the GI50 is 1.8 µM, the CC50 stood at 54 µM and the IC (TGI) is 8 µM. Besides, in the experiment with U251 (glioma) cells, the GI50 was 0.2 µM, the LC50 (concentration giving 50% net cell kill relative to the time-zero cell count) worked out at 60 µM and the IC (TGI) was 0.4 µM. Besides, in the experiment on NCIH460 (lung) cells, the GI50 is 3 µM, the LC50 worked out at 33 µM and the IC (TGI) was found to be 8 µM. For the same compound, the GI50 in experiment [1] was determined as 1.7 µM.
For the compound `CSc1ccc(/C=C(/C(=O)NCCCCCC(=O)NO)c2ccccc2F)cc1` [Compound 94, 6-(2-(2-Fluorophenyl)-3-(4-methylthiophenyl)acrylamido)-N-hydroxy hexanamide], in the experiment on HCT 116 (colon) cells, the GI50 was determined as 3.3 µM, the CC50 turned out to be 80 µM and the IC (TGI) amounted to 22 µM. In the experiment with U251 (glioma) cells, the GI50 was 1 µM, the LC50 (concentration giving 50% net cell kill relative to the time-zero cell count) turned out to be 70 µM and the IC (TGI) worked out at 10 µM. Besides, in the experiment on NCIH460 (lung) cells, the GI50 stood at 4.2 µM, the LC50 came to 74 µM and the IC (TGI) is 26 µM. The GI50 in experiment [1] worked out at 2.8 µM.
Turning to `Nc1ccccc1NC(=O)c1ccc(CNC(=O)/C(=C/c2ccc(F)c(C(F)(F)F)c2)c2ccc([N+](=O)[O-])cc2)cc1` [Compound 5, N-(2-Aminophenyl)-4-((3-(4-fluoro-3-trifluoromethylphenyl)-2-(4-nitrophenyl)acrylamido)methyl)benzamide], in experiment [2], the “HDAC inhibition % (1 μM)” value was 0.0% and the “HDAC inhibition % (10 μM)” value is on record as −27.4%. Besides, in the experiment with HCT 116 (colon) cells, the GI50 worked out at 3.1 µM, the CC50 was greater than 100 µM and the IC (TGI) worked out at 11 µM. For the same compound, in the experiment on NCIH460 (lung) cells, the GI50 is 5.5 µM, the LC50 was greater than 100 µM and the IC (TGI) is greater than 100 µM. Also, the concentration for 50% growth inhibition (GI50) in experiment [1] was 4.3 µM.
As to `Nc1ccccc1NC(=O)c1ccc(CNC(=O)/C(=C/C2CC2)c2ccc(F)cc2)cc1` [Compound 14, N-(2-Aminophenyl)-4-((3-(cyclopropyl)-2-(4-fluorophenyl)acrylamido)methyl)benzamide], in experiment [2], the “HDAC inhibition % (1 μM)” value is 22.8% and the “HDAC inhibition % (10 μM)” value was 31.6%. In the experiment with HCT 116 (colon) cells, the GI50 came to 5.6 µM, the CC50 was found to be 81 µM and the IC (TGI) was determined as 24 µM. In the experiment on NCIH460 (lung) cells, the GI50 was determined as 8 µM, the LC50 came to 82 µM and the IC (TGI) came out at 49 µM. For the same compound, the GI50 in experiment [1] came to 6.8 µM.
Regarding `COc1ccc(/C(=C\c2ccc(SC)cc2)C(=O)NCCCCCC(=O)NO)cc1` [Compound 92, 6-(2-(4-Methoxyphenyl)-3-(4-methylthiophenyl)acrylamido)-N-hydroxy hexanamide], in the experiment with HCT 116 (colon) cells, the GI50 stood at 7.5 µM, the CC50 amounted to 87 µM and the IC (TGI) is 46 µM. Besides, in the experiment on U251 (glioma) cells, the GI50 was determined as 10 µM, the LC50 (concentration giving 50% net cell kill relative to the time-zero cell count) worked out at 76 µM and the IC (TGI) is 16 µM. Besides, in the experiment with NCIH460 (lung) cells, the GI50 came to 6 µM, the LC50 worked out at 82 µM and the IC (TGI) was 40 µM. Besides, in experiment [1], the GI50 is 7.8 µM.
For `COc1ccc(/C(=C\c2ccc(OC)c(OC)c2)C(=O)NCc2ccc(C(=O)Nc3ccccc3N)cc2)cc1` [Compound 27, N-(2-Aminophenyl)-4-((3-(3,4-dimethoxyphenyl)-2-(4-methoxyphenyl)acrylamido)methyl)benzamide], in experiment [2], the “HDAC inhibition % (1 μM)” value stood at 37.1% and the “HDAC inhibition % (10 μM)” value turned out to be 47.2%. Further, in the experiment on HCT 116 (colon) cells, the GI50 worked out at 0.4 µM, the CC50 is greater than 100 µM and the IC (TGI) is greater than 100 µM. Further, in the experiment with NCIH460 (lung) cells, the GI50 came to 2.1 µM and the IC (TGI) is greater than 100 µM. Also, in experiment [1], the GI50 is 1.2 µM.
Turning to `Nc1ccccc1NC(=O)c1ccc(CNC(=O)/C(=C/c2ccncc2)c2ccc(F)cc2)cc1` [Compound 15, N-(2-Aminophenyl)-4-((3-(pyridin-4-yl)-2-(4-fluorophenyl)acrylamido)methyl)benzamide], in experiment [2], the “HDAC inhibition % (1 μM)” value is 42.7%, the “HDAC inhibition % (10 μM)” value is reported as 56.9% and the pIC50 is 5.42. Further, in the experiment on HCT 116 (colon) cells, the GI50 came to 2.7 µM, the CC50 is 94 µM and the IC (TGI) is 30 µM. Also, in the experiment on NCIH460 (lung) cells, the GI50 amounted to 8.8 µM, the LC50 was found to be 95 µM and the IC (TGI) stood at 60 µM. Moreover, the GI50 in experiment [1] turned out to be 5.8 µM.
As to `O=C(CCCCCNC(=O)/C(=C/C1CC1)c1ccc(F)cc1)NO` [Compound 93, 6-(2-(4-Fluorophenyl)-3-(cyclopropyl)acrylamido)-N-hydroxy hexanamide], in the experiment with HCT 116 (colon) cells, the GI50 was found to be 54 µM, the CC50 is greater than 100 µM and the IC (TGI) is greater than 100 µM. For the same compound, in the experiment with U251 (glioma) cells, the GI50 is 92 µM, the LC50 (concentration giving 50% net cell kill relative to the time-zero cell count) was greater than 100 µM and the IC (TGI) was greater than 100 µM. Further, in the experiment with NCIH460 (lung) cells, the GI50 is greater than 100 µM, the median lethal concentration (LC50) was greater than 100 µM and the IC (TGI) is greater than 100 µM. For the same compound, in experiment [1], the 50% growth inhibitory concentration (GI50) was determined as 73 µM.
